The target in assay [1] is T1, human adenosine A2a receptor (Homo sapiens, UniProt P29274).
T1 construct: expressed in transfected cells; host or cells: CHO-K1
The assay is described as follows: Adenosine A2a Receptor Functional Assay (A2AGAL2). The assay is classed as cell-based. Conditions: CHO-K1 cells overexpressing human A2a receptor, cAMP inducible beta-galactosidase reporter, 15 nM NECA agonist challenge; read-out: A2AGAL2_v4 Ki. The procedure:
Adenosine A2a Receptor Functional Assay (A2AGAL2)
(§1) To initiate the functional assay, cryopreserved CHO-K1 cells overexpressing the human adenosine A2a receptor and containing a cAMP inducible beta-galactosidase reporter gene were thawed, centrifuged, DMSO containing media removed, and then seeded with fresh culture media into clear 384-well tissue culture treated plates (BD #353961) at a concentration of 10K cells/well. Prior to assay, these plates were cultured for two days at 37° C., 5% CO2, 90% Rh. On the day of the functional assay, culture media was removed and replaced with 45 uL assay medium (Hams/F-12 Modified (Mediatech # 10-080CV) supplemented w/0.1% BSA). Test compounds were diluted and 11 point curves created at a 1000× concentration in 100% DMSO. Immediately after addition of assay media to the cell plates, 50 nL of the appropriate test compound antagonist or agonist control curves were added to cell plates using a Cartesian Hummingbird. Compound curves were allowed to incubate at room temperature on cell plates for approximately 15 minutes before addition of a 15 nM NECA (Sigma E2387) agonist challenge (5 uL volume). A control curve of NECA, a DMSO/Media control, and a single dose of Forskolin (Sigma F3917) were also included on each plate. After additions, cell plates were allowed to incubate at 37° C., 5% CO2, 90% Rh for 5.5-6 hours. After incubation, media was removed, and cell plates were washed 1×50 uL with DPBS w/o Ca & Mg (Mediatech 21-031-CV). Into dry wells, 20 uL of 1× Reporter Lysis Buffer (Promega E3971 (diluted in dH2O from 5× stock)) was added to each well and plates frozen at −20° C. overnight. For β-galactosidase enzyme colorimetric assay, plates were thawed out at room temperature and 20 μL 2× assay buffer (Promega) was added to each well. Color was allowed to develop at 37° C., 5% CO2, 90% Rh for 1-1.5 h or until reasonable signal appeared. The colorimetric reaction was stopped with the addition of 60 μL/well 1M sodium carbonate. Plates were counted at 405 nm on a SpectraMax Microplate Reader (Molecular Devices). Data was analyzed in Microsoft Excel and IC/EC50 curves were fit using a standardized macro.

Assay [2] deals with T2, human A2a adenosine receptor (Homo sapiens, UniProt P29274).
T2 construct: purchased PerkinElmer RB-HA2a; host or cells: HEK293 cell plasma membranes
The assay is described as follows: Ligand Binding Assay for Adenosine A2a Receptor (A2A-B). To be noted: plasma membrane of HEK293 cells, radioligand [3H]CGS21680; read-out: A2A-B_v3 Ki. The procedure:
Ligand Binding Assay for Adenosine A2a Receptor (A2A-B)
Ligand binding assay of adenosine A2a receptor was performed using plasma membrane of HEK293 cells containing human A2a adenosine receptor (PerkinElmer, RB-HA2a) and radioligand [^3H]CGS21680 (PerkinElmer, NET1021). Assay was set up in 96-well polypropylene plate in total volume of 200 μL by sequentially adding 20 μL 1:20 diluted membrane, 130 μL assay buffer (50 mM Tris.HCl, pH7.4 10 mM MgCl2, 1 mM EDTA) containing [^3H] CGS21680, 50 μL diluted compound (4×) or vehicle control in assay buffer. Nonspecific binding was determined by […] NECA. Reaction was carried out at room temperature for 2 hours before filtering through 96-well GF/C filter plate pre-soaked in 50 mM Tris.HCl, pH7.4 containing 0.3% polyethylenimine. Plates were then washed 5 times with cold 50 mM Tris.HCl, pH7.4, dried and sealed at the bottom. Microscintillation fluid 30 μL was added to each well and the top sealed. Plates were counted on Packard Topcount for [^3H]. Data was analyzed in Microsoft Excel and GraphPad Prism programs. (Varani, K.; Gessi, S.; Dalpiaz, A.; Borea, P. A. British Journal of Pharmacology, 1996, 117, 1693)

The target in assay [3] is T3, human adenosine A1 receptor (Homo sapiens, UniProt P30542).
T3 construct: expressed in transfected cells; host or cells: CHO-K1
T3 sequence (P30542 1-326): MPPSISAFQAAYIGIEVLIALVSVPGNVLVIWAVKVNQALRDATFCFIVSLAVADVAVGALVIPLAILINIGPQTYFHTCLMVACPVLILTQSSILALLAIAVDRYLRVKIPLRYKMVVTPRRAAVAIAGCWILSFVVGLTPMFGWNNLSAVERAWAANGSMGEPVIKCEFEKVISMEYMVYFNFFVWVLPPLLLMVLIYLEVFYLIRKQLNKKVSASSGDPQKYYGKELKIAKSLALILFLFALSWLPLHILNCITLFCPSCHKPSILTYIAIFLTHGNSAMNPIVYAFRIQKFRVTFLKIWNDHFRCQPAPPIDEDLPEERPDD
The assay is described as follows: Adenosine A1 Receptor Functional Assay (A1GAL2). To be noted: CHO-K1 cells overexpressing human A1 receptor, cAMP inducible beta-galactosidase reporter, 4 nM r-PIA/1 uM Forskolin agonist challenge; read-out: A1GAL2_v3 Ki. The format is cell-based. The procedure:
Adenosine A1 Receptor Functional Assay (A1GAL2)
as §1, with “adenosine A1” for “adenosine A2a”, “a 4” for “a 15”, “nM r-PIA” for “nM NECA”, “(Sigma P4532)/1 uM Forskolin (Sigma F3917)” for “(Sigma E2387)”, “of r-PIA in 1 uM Forskolin,” for “of NECA,”, “Forskolin” for “Forskolin (Sigma F3917)”

T1 sequence (P29274 whole entry): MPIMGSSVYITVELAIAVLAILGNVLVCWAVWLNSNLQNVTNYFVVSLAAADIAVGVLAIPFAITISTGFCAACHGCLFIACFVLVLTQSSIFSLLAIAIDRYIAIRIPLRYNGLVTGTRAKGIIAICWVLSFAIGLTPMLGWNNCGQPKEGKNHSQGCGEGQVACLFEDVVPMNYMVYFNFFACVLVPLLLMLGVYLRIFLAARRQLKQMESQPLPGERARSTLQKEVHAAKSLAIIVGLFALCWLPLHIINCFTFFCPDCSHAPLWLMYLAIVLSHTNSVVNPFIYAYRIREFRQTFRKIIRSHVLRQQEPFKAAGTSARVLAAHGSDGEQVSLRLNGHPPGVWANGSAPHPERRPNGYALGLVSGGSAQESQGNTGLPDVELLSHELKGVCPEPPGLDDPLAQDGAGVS
T2 sequence (P29274 whole entry): as above

`Cc1ccc(-c2nc(N)c3cc(CC4CCCCC4)sc3n2)o1` [Example 1, 6-Cyclohexylmethyl-2-(5-methyl-furan-2-yl)-thieno[2,3-d]pyrimidin-4-ylamine]: the Ki in assay [1] amounted to 77.3 nM; in assay [2], 34.2 nM; in assay [3] it was 3770 nM.

In the case of `CC(C)(C)c1ccc(-c2nc(N)c3cc(CCN4CCOCC4)sc3n2)s1` [Example 2, 2-(5-tert-Butyl-thiophen-2-yl)-6-(2-morpholin-4-yl-ethyl)-thieno[2,3-d]pyrimidin-4-ylamine], the values for the Ki in assay [1] and in assay [3] were greater than 1490 nM and greater than 1310 nM, respectively.

Consider `Nc1nc(-c2ncco2)nc2sc(CCN3CCOCC3)cc12` [Example 3, 6-(2-Morpholin-4-yl-ethyl)-2-oxazol-2-yl-thieno[2,3-d]pyrimidin-4-ylamine], for which the values for the Ki in assay [1] and in assay [3] were 238 nM and 18700 nM, respectively.

On to `Cc1csc(-c2nc(N)c3cc(CCN4CCOCC4)sc3n2)n1` [Example 4, 2-(4-Methyl-thiazol-2-yl)-6-(2-morpholin-4-yl-ethyl)-thieno[2,3-d]pyrimidin-4-ylamine], for which the values for the Ki in assay [1] and in assay [3] were 190 nM and 2370 nM, respectively.

Regarding `N#Cc1cccc(-c2nc(N)c3cc(CCN4CCOCC4)sc3n2)c1` [Example 5, 3-[4-Amino-6-(2-morpholin-4-yl-ethyl)-thieno[2,3-d]pyrimidin-2-yl]-benzonitrile], the Ki in assay [1] amounted to 40.1 nM; in assay [3], 594 nM.

`N#Cc1cccc(-c2nc(N)c3cc([C@H](O)CN4CCOCC4)sc3n2)c1` [Example 6, 3-[4-Amino-6-(1-hydroxy-2-morpholin-4-yl-ethyl)-thieno[2,3-d]pyrimidin-2-yl]-benzonitrile]: the Ki came out at 29.8 nM in assay [1] and 317 nM in assay [3].

For `C[C@@H]1CCC[C@H](C)N1C[C@@H](O)c1cc2c(N)nc(-c3cccc(C#N)c3)nc2s1` [Example 7, 3-{4-Amino-6-[2-(2,6-dimethyl-piperidin-1-yl)-1-hydroxy-ethyl]-thieno[2,3-d]pyrimidin-2-yl}-benzonitrile], the figures for the Ki in assay [1] and in assay [3] were 195 nM and 855 nM, respectively.
